# Values of other authors, collected in patent US6114314A (priority 1994, dated 2000).
# Columns and labels:
# macrophages = details: tissue culture
# experiment neoplasm = details: with Interleukin 2
# [1] = in cross-linked hyaluronic acid gel
# rabbit eye = details: in vivo
Compound,malfunction of macrophages (block due to excessive prostaglandin) (macrophages),also measured
"CC(=O)Oc1ccccc1C(=O)O [ASA, acetylsalicylic acid]",can be altered,–
COc1ccc2c(c1)c(CC(=O)O)c(C)n2C(=O)c1ccc(Cl)cc1 [indomethacin],can be altered,cure of experiment neoplasm (experiment neoplasm): could effect a cure
COc1ccc2cc([C@H](C)C(=O)O)ccc2c1 [naproxen],can be altered,–
heparin,–,antithrombogenic activity [1]: retained its antithrombogenic activity
sodium hyaluronate [sodium hyaluronate (LifeCore)],–,"Biological Safety Testing, Rabbit Ocular Toxicity Test (rabbit eye): Passes"
